Counter-ions that a name gives are not always drawn. Like-named read-outs stand apart in the source and are kept apart here.
How the values were obtained:
[1] = molecular target: β2 receptor (cells expressing human ADRB2 gene) (Homo sapiens (Human), UniProt P07550); assay: Agonistic effect on β2 receptor by HTRF cAMP method; assay type: cell-based
Procedure: (§1) β2 receptor is a G protein-coupled receptor, which is mainly coupled with Gs protein, and can activate adenylate cyclase activity through the Gs protein after being activated by binding to the ligand, thereby increasing the level of intracellular cAMP. In this experiment, the agonistic activity of the compounds against the β2 receptor in vitro was assayed by the cAMP kit.
(§2) β2 cells (expressing human ADRB2 gene) from ICE Bioscience Inc. were grown under standard conditions. The cells were collected and diluted with 1× Stimulation Buffer, and 9 μL of the cell dilution was added to a white low-volume 384-well plate with 1000 cells seeded in each well. Compounds were serially diluted in DMSO in a 5-fold gradient to obtain 10 concentrations. Before testing, compounds that had been serially diluted in DMSO were subjected to 100-fold dilution with 1× Stimulation Buffer to obtain compound working solutions. The concentration of the vehicle DMSO was 0.1%. Eu-cAMP and ULight™-anti-cAMP were diluted to the working concentration with Detection buffer. 5 μL of Eu-cAMP diluent and 5 μL of ULight™-anti-cAMP diluent were sequentially added into corresponding experiment wells. After 1 h of incubation at room temperature, readings at 665 nm and 620 nm were measured under the excitation wavelength of 330 nm using a Biotek microplate reader. The activity of the compounds was obtained by plotting through Ratio (665/620) against the concentration of the compounds, fitting the curve by a nonlinear regression method using GraphPad Prism 7 software and calculating EC50.

[2] = molecular target: β1 receptor (cells expressing human ADRB1 gene) (Homo sapiens (Human), UniProt P08588); assay: Agonistic effect on β1 receptor by HTRF cAMP method; assay type: cell-based
β1 receptor (cells expressing human ADRB1 gene), sequence (P08588 whole entry): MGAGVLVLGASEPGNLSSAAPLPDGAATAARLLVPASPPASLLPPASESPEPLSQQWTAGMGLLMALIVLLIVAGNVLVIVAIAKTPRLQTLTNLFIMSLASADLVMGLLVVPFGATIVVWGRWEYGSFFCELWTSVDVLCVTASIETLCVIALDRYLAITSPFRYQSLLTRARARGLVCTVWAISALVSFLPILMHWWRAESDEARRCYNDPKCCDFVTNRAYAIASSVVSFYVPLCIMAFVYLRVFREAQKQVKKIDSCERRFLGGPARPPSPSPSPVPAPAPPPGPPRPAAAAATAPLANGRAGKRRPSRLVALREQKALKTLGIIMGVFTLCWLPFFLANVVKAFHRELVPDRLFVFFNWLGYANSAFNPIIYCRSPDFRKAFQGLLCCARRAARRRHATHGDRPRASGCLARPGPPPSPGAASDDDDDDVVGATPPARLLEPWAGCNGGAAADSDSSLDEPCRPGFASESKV
Procedure: as §1, with “β1” for “β2”
as §2, with “β1” for “β2”, “ADRB1” for “ADRB2”, “4000” for “1000”

M3 receptor = M3 receptor (Homo sapiens (Human), UniProt P20309); assay: M3 receptor affinity test (3H-NMS competition); assay type: binding
M3 receptor, sequence (P20309 whole entry): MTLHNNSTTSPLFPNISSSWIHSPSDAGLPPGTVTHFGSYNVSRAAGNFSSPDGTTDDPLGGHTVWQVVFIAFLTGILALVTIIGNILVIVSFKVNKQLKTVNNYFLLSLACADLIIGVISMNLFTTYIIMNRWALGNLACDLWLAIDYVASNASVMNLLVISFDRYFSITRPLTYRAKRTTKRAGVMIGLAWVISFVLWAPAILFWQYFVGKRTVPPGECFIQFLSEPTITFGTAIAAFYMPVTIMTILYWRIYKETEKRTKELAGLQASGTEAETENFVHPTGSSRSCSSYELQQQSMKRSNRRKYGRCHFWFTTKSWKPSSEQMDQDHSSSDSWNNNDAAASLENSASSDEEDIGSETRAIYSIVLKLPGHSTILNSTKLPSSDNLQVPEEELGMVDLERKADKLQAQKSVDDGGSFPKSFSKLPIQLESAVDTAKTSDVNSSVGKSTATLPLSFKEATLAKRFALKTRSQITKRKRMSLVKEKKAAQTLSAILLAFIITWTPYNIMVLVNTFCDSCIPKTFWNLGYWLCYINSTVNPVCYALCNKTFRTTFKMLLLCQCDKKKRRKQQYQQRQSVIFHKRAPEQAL
Procedure: M3 receptor is a G protein-coupled receptor. In this experiment, the activity of test compounds against the M3 receptor in vitro was assayed by the competition of radioisotope labeled NMS and non-isotope labeled test compounds for an M3 binding site.
(§3) The experiment was performed by a radioisotope affinity assay. The M3 receptor membrane protein was prepared at 10 μg/mL by Biology Department of WuXi AppTec, and compounds were serially diluted in a 2.5-fold gradient in DMSO to obtain 10 concentrations. Radioisotope 3H-NMS was prepared at 0.2 nM in an assay buffer (10 mM HEPES, 1 mM MgCl2, pH 7.40). In formal testing, the experimental system comprising 1 of the test compound, 100 μL of M3 receptor membrane protein and 100 μL of radioisotope was shaken in a shaker at 300 RPM for 2 h at room temperature. A GF/C plate (Perkin Elmer, Cat No. 6055690) was prefoamed with 0.3% PEI, and the membrane proteins in the reaction solution were collected by filtration onto the GF/C plate. The signal values were read by a Perkin Elmer Microbeta2 instrument and the inhibition rate for each concentration point was shown as a percentage.

M2 receptor = M2 receptor (Homo sapiens (Human), UniProt P08172); assay: M2 receptor affinity test (3H-NMS competition); assay type: binding
M2 receptor, sequence (P08172 whole entry): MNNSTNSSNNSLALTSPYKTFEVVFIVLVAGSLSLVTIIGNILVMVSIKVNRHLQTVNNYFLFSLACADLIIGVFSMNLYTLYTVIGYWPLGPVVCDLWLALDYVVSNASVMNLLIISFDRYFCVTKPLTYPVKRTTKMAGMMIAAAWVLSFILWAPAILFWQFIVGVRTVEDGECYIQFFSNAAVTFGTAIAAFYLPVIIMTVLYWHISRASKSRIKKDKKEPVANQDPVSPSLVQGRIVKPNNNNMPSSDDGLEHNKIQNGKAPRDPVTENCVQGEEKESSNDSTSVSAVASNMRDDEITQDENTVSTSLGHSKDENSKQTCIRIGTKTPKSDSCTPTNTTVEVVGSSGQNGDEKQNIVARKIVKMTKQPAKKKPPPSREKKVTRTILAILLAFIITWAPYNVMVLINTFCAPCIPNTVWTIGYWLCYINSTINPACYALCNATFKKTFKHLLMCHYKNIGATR
Procedure: M2 receptor is a G protein-coupled receptor. In this experiment, the activity of test compounds against the M2 receptor in vitro was assayed by the competition of radioisotope labeled NMS and non-isotope labeled test compounds for an M2 binding site.
as §3, with “The M2 receptor membrane” for “The experiment was performed by a radioisotope affinity assay. The M3 receptor membrane”, “prepared at 100 μg/mL by” for “prepared at 10 μg/mL by”, “comprising 1 μL of the” for “comprising 1 of the”, “μL of M2 receptor membrane” for “μL of M3 receptor membrane”

[3] = Pharmacokinetic evaluation in SD rats; assay type: in vivo; conditions: male, rat, plasma; for clearance / AUC / half-life: 10% aqueous HPβCD; for clearance: read-out: Clearance rate for administration by intravenous injection; for bioavailability: intra-tracheal 5 mpk vs intravenous 2 mpk, read-out: Bioavailability F for intra-tracheal administration with a nebulizer needle; for half-life: read-out: Half life T1/2 for intra-tracheal administration with a nebulizer needle (converted)
Procedure: To test pharmacokinetics of test compounds in SD rats
SD rats (male, 200-250 g, 7-9 weeks old, Beijing Vital River Laboratory Animal Technology Co., Ltd.)
A formulation containing 10% aqueous HPβCD solution as a vehicle was administered by intravenous injection (2 mpk), and a formulation containing 10% aqueous HPβCD solution as a vehicle was administered by intra-tracheal administration (5 mpk) with a nebulizer needle. Before the animal experiment, all animals were fed normally; and all animals were given free access to water. Blood collection time points were as follows: intravenous administration group: 0.083 h, 0.25 h, 0.5 h, 1 h, 2 h, 4 h, 8 h, and 24 h; nebulizer needle administration group: 0.083 h, 0.25 h, 0.5 h, 1 h, 2 h, 4 h, 8 h, and 24 h.
Whole blood samples (0.25 mL) were collected via the jugular vein (or other suitable collection site) at prescribed time points, and all blood samples were added to labeled plastic centrifuge tubes containing a K2-EDTA anticoagulant. After blood collection, plasma was separated by centrifugation and placed in dry ice rapidly, and the samples were stored at low temperature. All samples were analyzed by LC-MS/MS with a limit of detection of 4 nM. The mean concentration of plasma was processed using a non-compartmental model of the pharmacokinetic software WinNonlin™ Version 6.3 (Pharsight, Mountain View, CA), and pharmacokinetic parameters were calculated by a linear log-trapezoidal method.

[4] = HTRF cAMP, 1 h incubation at room temperature, read-out: EC50, agonistic activity against the β2 receptor in vitro
[5] = read-out: IC50, activity against the M3 receptor in vitro
[6] = 2 mg/kg, intravenous injection 2 mpk
[7] = 2 mg/kg, intravenous injection 2 mpk, read-out: Concentration integration AUC for administration by intravenous injection
[8] = inhaled or intranasal, 5 mg/kg, intra-tracheal 5 mpk, read-out: Concentration integration AUC for intra-tracheal administration with a nebulizer needle
[9] = inhaled or intranasal, 5 mg/kg, intra-tracheal 5 mpk

β2 receptor (cells expressing human ADRB2 gene), sequence (P07550 whole entry): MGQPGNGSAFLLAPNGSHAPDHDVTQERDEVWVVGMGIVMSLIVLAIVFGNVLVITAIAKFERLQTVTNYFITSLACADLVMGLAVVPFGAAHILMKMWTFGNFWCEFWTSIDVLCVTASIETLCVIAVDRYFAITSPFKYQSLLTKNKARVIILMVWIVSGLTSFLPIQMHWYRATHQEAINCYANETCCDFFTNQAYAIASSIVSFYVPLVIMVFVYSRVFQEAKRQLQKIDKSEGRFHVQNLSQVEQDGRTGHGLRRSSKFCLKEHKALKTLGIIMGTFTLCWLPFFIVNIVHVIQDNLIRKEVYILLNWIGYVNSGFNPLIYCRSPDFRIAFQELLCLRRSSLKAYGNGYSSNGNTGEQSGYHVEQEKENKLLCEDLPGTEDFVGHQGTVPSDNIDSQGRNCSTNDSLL

SMILES | EC50 [1, 4] [nM] | EC50 [2] [nM] | IC50 (M3 receptor; [5]) [nM] | other results
Cn1ncc2c(CNC[C@H](O)c3ccc(O)c4[nH]c(=O)ccc34)cc3nnn(CCCN(C)[C@H]4CC[C@H](OC(=O)C(O)(c5cccs5)c5cccs5)CC4)c3c21 [Compound 11] | 1.12 | 33.7 | 0.638 | –
O=C(OC1CC2(C1)CN(CCCn1nnc3cc(CNC[C@H](O)c4ccc(O)c5[nH]c(=O)ccc45)c4c(c31)CCC4)C2)C(O)(c1cccs1)c1cccs1 [Formate salt of compound 2] | 0.889 | 157 | 0.347 | –
O=C(OC1CCC2(CC1)CN(CCCn1nnc3cc(CNC[C@H](O)c4ccc(O)c5[nH]c(=O)ccc45)c4c(c31)CCC4)C2)C(O)(c1cccs1)c1cccs1 [Formate salt of compound 4] | 2.15 | 304 | 0.343 | –
CN(CCCn1nnc2cc(CNC[C@H](O)c3ccc(O)c4[nH]c(=O)ccc34)c3c(c21)OCCO3)[C@H]1CC[C@H](OC(=O)C(O)(c2cccs2)c2cccs2)CC1 [Formate salt of compound 12] | 2.04 | 127 | – | –
O=C(OC1CC2(CCN(CCCn3nnc4cc(CNC[C@H](O)c5ccc(O)c6[nH]c(=O)ccc56)c5c(c43)CCC5)CC2)C1)C(O)(c1ccc(Cl)s1)c1ccc(Cl)s1 [Formate salt of compound 19] | 5.14 | 1440 | 0.281 | –
O=C(OCC1(O)CCN(CCCn2nnc3cc(CNC[C@H](O)c4ccc(O)c5[nH]c(=O)ccc45)c4c(c32)CCC4)CC1)C(O)(c1cccs1)c1cccs1 [Formate salt of compound 31] | – | – | 0.655 | –
Cc1ccc(C(O)(C(=O)C[C@H]2CC[C@H](N(C)CCCn3nnc4cc(CNC[C@H](O)c5ccc(O)c6[nH]c(=O)ccc56)c5c(c43)CCC5)CC2)c2ccc(C)s2)s1 [Formate salt of compound 32] | 1.57 | – | – | IC50 (M2 receptor; 0.2 nM 3H-NMS, M2 receptor membrane protein, 2 h at room temperature, read-out: IC50, activity against the M2 receptor in vitro): 0.814 nM; EC50 ([2]; HTRF cAMP, 1 h incubation at room temperature, read-out: EC50, agonistic activity against the β1 receptor in vitro): 145 nM; IC50 (M3 receptor; 0.2 nM 3H-NMS, M3 receptor membrane protein, 2 h at room temperature, read-out: IC50, activity against the M3 receptor in vitro): 1.2 nM
CN(CCCn1nnc2cc(CNC[C@H](O)c3ccc(O)c4[nH]c(=O)ccc34)c3c(c21)OCO3)[C@H]1CC[C@H](OC(=O)C(O)(c2cccs2)c2cccs2)CC1 [Formate salt of compound 33] | – | 53.1 | – | IC50 (M2 receptor): 0.153 nM; EC50 [1]: 0.742 nM; IC50 (M3 receptor): 0.494 nM
CN(CCCn1nnc2cc(CNC[C@H](O)c3ccc(O)c4[nH]c(=O)ccc34)c3c(c21)COC3)[C@H]1CC[C@H](OC(=O)C(O)(c2cccs2)c2cccs2)CC1 [Formate salt of compound 40] | – | 56.7 | – | IC50 (M2 receptor): 0.228 nM; EC50 [1]: 2.8 nM; IC50 (M3 receptor): 0.363 nM
CN(CCCn1cnc2cc(CNC[C@H](O)c3ccc(O)c4[nH]c(=O)ccc34)c3c(c21)CCC3)[C@H]1CC[C@H](OC(=O)C(O)(c2cccs2)c2cccs2)CC1 [Formate salt of compound 41] | – | 229 | – | IC50 (M2 receptor): 0.268 nM; EC50 [1]: 13.8 nM; IC50 (M3 receptor): 0.201 nM
C[N+]1(CCCn2nnc3cc(CNC[C@H](O)c4ccc(O)c5[nH]c(=O)ccc45)c4c(c32)CCC4)CCC(OC(=O)C(O)(c2cccs2)c2cccs2)CC1 (stereo partly shown) [Hydrobromide salt of compound 30] | – | 94.9 | – | –
CN(CCCn1nnc2cc(CNC[C@H](O)c3ccc(O)c4[nH]c(=O)ccc34)ccc21)[C@H]1CC[C@H](OC(=O)C(O)(c2cccs2)c2cccs2)CC1 [Hydrofluoride salt of AZD8871, reference compound] | – | – | – | clearance [3, 6]: 35 mL/min/kg; AUC [3, 7]: 1.27 µM·h; bioavailability ([3]; inhaled or intranasal, 5 mg/kg): 76.7%; AUC [3, 8]: 2.44 µM·h; half-life [3, 9]: 30.9 min
CN(CCCn1nnc2cc(CNC[C@H](O)c3ccc(O)c4[nH]c(=O)ccc34)c3c(c21)CCC3)[C@H]1CC[C@H](OC(=O)C(O)(c2cccs2)c2cccs2)CC1 [Trifluoroacetate salt of compound 1] | 3.47 | 84.5 | 0.384 | IC50 (M2 receptor): 0.062 nM; clearance [3, 6]: 62.8 mL/min/kg; AUC [3, 7]: 0.681 µM·h; bioavailability ([3]; inhaled or intranasal, 5 mg/kg): 153%; AUC [3, 8]: 2.61 µM·h; half-life [3, 9]: 82.8 min
CN(CCCn1nnc2cc(CNC[C@H](O)c3ccc(O)c4[nH]c(=O)ccc34)c3c(c21)CCC3)[C@H]1CC[C@H](OC(=O)C(O)(c2ccc(Cl)s2)c2ccc(Cl)s2)CC1 [Trifluoroacetate salt of compound 10] | 1.36 | 269 | 1.27 | –

Reference: patent publication US20230322745A1, “FUSED TRICYCLIC DERIVATIVE AND PHARMACEUTICAL APPLICATION THEREOF” (CHIA TAI TIANQING PHARMACEUTICAL GROUP CO., LTD., priority 2020, published 2023)
